According to PMC9631887 (ACS Omega, 2022):

Columns and labels:
PAMPA-GIT = conditions: for experimental fraction absorption / classification: PAMPA-GIT; for classification: fraction absorption classification; for Papp at 8 h, 500 μM: PAMPA
[1] = QC standards; ref Zhu et al.[29]; cited from earlier work

Row | Structure (SMILES) | experimental fraction absorption (PAMPA-GIT) [%] | classification (PAMPA-GIT) | classification (PAMPA-BBB) | literature fraction absorption [1] [%] | Papp at 8 h, 500 μM (PAMPA-GIT) [×10⁻⁶ cm/s]
1 | C[C@]12CCC(=O)C=C1CC[C@@H]1[C@@H]2[C@@H](O)C[C@@]2(C)[C@H]1CC[C@]2(O)C(=O)CO [hydrocortisone] | 100.00 | – | – | – | –
2 | CC(C)NCC(O)COc1ccc(CC(N)=O)cc1 (stereo not shown) [atenolol] | – | low (Low, 0–29% Fa) | – | – | –
3 | Cn1c(=O)c2c(ncn2C)n(C)c1=O [caffeine] | – | – | BBB– (Pe values <1.57 were classified as nonpermeable (BBB−)) | – | –
4 | CCn1cc(C(=O)O)c(=O)c2cc(F)c(N3CCNCC3)cc21 [norfloxacin] | 51.39 | intermediate (Intermediate, 30–69% Fa) | – | – | –
5 | O=C(O)Cc1ccccc1Nc1c(Cl)cccc1Cl [diclofenac] | 100.00 | high (High, 70–100% Fa) | – | 100 | 14
6 | CCn1cc(C(=O)O)c(=O)c2cc(F)c(N3CCNCC3)nc21 [enoxacin] | – | – | BBB– (Pe values <1.57 were classified as nonpermeable (BBB−)) | – | –
7 | CO/N=C(\C(=O)N[C@@H]1C(=O)N2C(C(=O)O)=C(CSc3nc(=O)c(=O)[nH]n3C)CS[C@H]12)c1csc(N)n1 [ceftriaxone] | – | – | – | 1 | –
8 | CNC(=C[N+](=O)[O-])NCCSCc1ccc(CN(C)C)o1 [ranitidine] | 49.75 | intermediate (Intermediate, 30–69% Fa) | – | – | –
9 | O=c1ccc2ccccc2o1 [coumarin] | 100.00 | high (High, 70–100% Fa) | – | – | 27.9
